Reference: patent publication US20230149448A1, “METHODS FOR PREVENTING AND TREATING R[…] MODIFICATION OF VIRUS RECEPTOR BINDING DOMAINS USING […]” (priority 2021, published 2023)

Columns and labels:
SARS-CoV-2 [1] = type: cell-based
[2] = target: receptor binding domain (RBD) of Spike S protein (Severe acute respiratory syndrome coronavirus 2, UniProt P0DTC2); test: Exposure of Spike protein, capture/detection by RBD-specific antibodies (96 well, HRP); parameters: species or system SARS-CoV-2; settings: 150 ppm, 5 minutes exposure
SARS-CoV-2 [3] = type: cell-based; remark: listed apart in the source
human subjects = test: Safety of microaerosolized HOCl inhalation in human volunteers; type: in vivo; settings: dense microaerosols for 2-5 minutes, 400 episodes
Protocol: The safety of exposure of human subjects to microaerosolized pure stable HOCl of the present disclosure via the respiratory route was evaluated.
Human volunteers were exposed to dense microaerosols of HOCl for periods of 2-5 minutes and submitted subjective reports of the outcomes of these experiences. Data on a total of 400 such episodes were collected under medical supervision.

Row | Structure (SMILES) | average reductions in infectivity (positive control) (SARS-CoV-2 [1]) [%] | inhibition of chromophore formation (S protein remaining bound by RBD specific antibodies) [2] | average reduction in titer (SARS-CoV-2 [3]) [%] | average reductions in infectivity (SARS-CoV-2 [1]) [%] | serious adverse effects (human subjects) | minor complaints (nose irritation, slight impact on ease of deep breathing) (human subjects; disappeared upon cessation of exposure)
1 | CCO [45% ethanol, ethanol, reference compound] | 99.98 | – | – | – | – | –
2 | OBr [HOBr, hypobromous acid] | – | complete inhibition | – | – | – | –
3 | OCl [HOCl, hypochlorous acid] | – | complete inhibition | 99.96 | 99.92 | No serious adverse effects | approximately 3%
